Experiment [1] relates to IL10 secretion by TMD8 ABC-DLBCL cells. The experiment can be described thus: Human IL10 Mesoscale assay (TMD-8). Conditions: Homo sapiens, TMD8; TMD-8 cells, 24 h. In kind it is cell-based. The method in brief: (§1)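 After 24 h at 37 °C with test compounds (15 μM down to 58.6 nM, 9 twofold steps, 0.3% DMSO), IL6 and IL10 secreted by 100,000 OCI-LY3 or TMD8 cells per well were measured in supernatants with a Mesoscale immunoassay. Data were scaled between DMSO wells (high) and RN486 treatment (low).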

For experiment [2], the system named is IL6 secretion by TMD8 ABC-DLBCL cells. The experiment can be described thus: Human IL6 Mesoscale assay (TMD-8). It is filed as cell-based. As to conditions: Homo sapiens, TMD8; TMD-8 cells, 24 h. An outline of the steps: as §1
Experiment [3] concerns the target full-length MALT1 protein (Strep-MALT1(1-824)-His) (Homo sapiens (Human), UniProt Q9UDY8). The experiment can be described thus: MALT1 Biochemical Protease Assay (Ac-LRSR-AMC substrate). As to conditions: 10 nM FL MALT1, 200 μM Ac-LRSR-AMC, 4 h at RT; read-out: MALT1_Biochemical activity (Ac-LRSR-amc) IC50. An outline of the steps: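 Fluorescence from AMC release off the quenched LRSR substrate was read after a 4 h reaction at RT. Values were normalised to no-enzyme and uninhibited controls and fitted for IC50 and Hill coefficient.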

The values below come from patent US10954214B2 (Janssen Pharmaceutica NV, priority 2016, dated 2021).

full-length MALT1 protein (Strep-MALT1(1-824)-His), sequence (Q9UDY8 whole entry): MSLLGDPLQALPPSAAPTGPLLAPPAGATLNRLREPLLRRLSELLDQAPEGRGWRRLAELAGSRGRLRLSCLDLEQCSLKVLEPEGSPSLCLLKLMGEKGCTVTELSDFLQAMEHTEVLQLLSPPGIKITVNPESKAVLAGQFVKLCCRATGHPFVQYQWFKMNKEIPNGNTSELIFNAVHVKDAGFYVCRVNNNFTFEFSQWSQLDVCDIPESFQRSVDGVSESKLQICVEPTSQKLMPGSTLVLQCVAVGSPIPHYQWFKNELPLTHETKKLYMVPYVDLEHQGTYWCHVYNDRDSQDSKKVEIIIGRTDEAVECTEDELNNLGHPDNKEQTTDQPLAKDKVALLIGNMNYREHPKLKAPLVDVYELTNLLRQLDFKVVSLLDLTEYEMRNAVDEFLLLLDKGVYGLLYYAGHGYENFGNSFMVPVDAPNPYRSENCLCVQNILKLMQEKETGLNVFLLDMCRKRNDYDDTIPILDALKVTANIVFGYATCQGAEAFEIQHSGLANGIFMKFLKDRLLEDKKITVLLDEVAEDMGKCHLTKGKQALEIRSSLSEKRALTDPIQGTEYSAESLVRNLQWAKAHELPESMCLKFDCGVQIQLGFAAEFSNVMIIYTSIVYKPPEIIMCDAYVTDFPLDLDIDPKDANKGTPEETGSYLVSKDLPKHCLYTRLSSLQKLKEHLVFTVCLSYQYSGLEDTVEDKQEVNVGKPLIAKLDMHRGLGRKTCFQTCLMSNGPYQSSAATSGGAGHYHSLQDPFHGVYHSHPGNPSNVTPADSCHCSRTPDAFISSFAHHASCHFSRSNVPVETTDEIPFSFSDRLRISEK

As to `NC(=O)c1ccc2c(-n3ncc(C(=O)Nc4cnc(-n5nccn5)c(Cl)c4)c3C(F)(F)F)cccc2n1` [Cpd 388, 5-(4-((5-chloro-6-(2H-1,2,3-triazol-2-yl)pyridin-3-yl)carbamoyl)-5-(trifluoromethyl)-1H-pyrazol-1-yl)quinoline-2-carboxamide], the values for the IC50 in experiment [1], in experiment [2] and in experiment [3] were 0.054 µM, 0.126 µM and 2 µM, respectively.
For `NC(=O)c1nccc2c(-n3ncc(C(=O)Nc4cnc(-n5nccn5)c(Cl)c4)c3C(F)(F)F)cccc12` [Cpd 389, 5-(4-((5-chloro-6-(2H-1,2,3-triazol-2-yl)pyridin-3-yl)carbamoyl)-5-(trifluoromethyl)-1H-pyrazol-1-yl)isoquinoline-1-carboxamide], the half-maximal inhibitory concentration (IC50) in experiment [1] is 0.046 µM; in experiment [2], 0.058 µM; in experiment [3], 0.186 µM.
On to `Cc1nc(-n2nccn2)c(Cl)cc1NC(=O)c1cnn(-c2cnc(C(N)=O)c3sccc23)c1C(F)(F)F` [Cpd 393, 4-(4-((5-chloro-2-methyl-6-(2H-1,2,3-triazol-2-yl)pyridin-3-yl)carbamoyl)-5-(trifluoromethyl)-1H-pyrazol-1-yl)thieno[2,3-c]pyridine-7-carboxamide], for which the half-inhibitory concentration (IC50) is 0.126 µM in experiment [1], 0.245 µM in experiment [2] and 0.012 µM in experiment [3].
For `O=C(Nc1cnc(-n2nccn2)c(Cl)c1)c1cnn(-c2cccc3nc(C(F)F)ccc23)c1C(F)(F)F` [Cpd 395, N-(5-chloro-6-(2H-1,2,3-triazol-2-yl)pyridin-3-yl)-1-(2-(difluoromethyl)quinolin-5-yl)-5-(trifluoromethyl)-1H-pyrazole-4-carboxamide], the IC50 in experiment [1] turned out to be 0.028 µM; in experiment [2], 0.072 µM; in experiment [3], 3.47 µM.
In the case of `O=C(Nc1cnc(-n2nccn2)c(Cl)c1)c1cnn(-c2cccc3nccc(C(F)F)c23)c1C(F)(F)F` [Cpd 396, N-(5-chloro-6-(2H-1,2,3-triazol-2-yl)pyridin-3-yl)-1-(4-(difluoromethyl)quinolin-5-yl)-5-(trifluoromethyl)-1H-pyrazole-4-carboxamide], the IC50 in experiment [1] came to 0.039 µM; in experiment [2], 0.051 µM; in experiment [3], 0.447 µM.
Regarding `O=C(Nc1cnc(-n2nccn2)c(Cl)c1)c1cnn(-c2ccc(C(F)F)c3ncccc23)c1C(F)(F)F` [Cpd 397, N-(5-chloro-6-(2H-1,2,3-triazol-2-yl)pyridin-3-yl)-1-(8-(difluoromethyl)quinolin-5-yl)-5-(trifluoromethyl)-1H-pyrazole-4-carboxamide], the results for the IC50 in experiment [1], in experiment [2] and in experiment [3] were 0.017 µM, 0.107 µM and 0.214 µM, respectively.
`O=C(Nc1cnc(-n2nccn2)c(Cl)c1)c1cnn(-c2cnc(C(F)F)c3sccc23)c1C(F)(F)F` [Cpd 398, N-(5-chloro-6-(2H-1,2,3-triazol-2-yl)pyridin-3-yl)-1-(7-(difluoromethyl)thieno[2,3-c]pyridin-4-yl)-5-(trifluoromethyl)-1H-pyrazole-4-carboxamide]: the IC50 in experiment [1] came to 0.056 µM; in experiment [2], 0.098 µM; in experiment [3], 0.06 µM.
For `O=C(Nc1cnc(-n2nccn2)c(Cl)c1)c1cnn(-c2cncc3sc(C(F)F)cc23)c1C(F)(F)F` [Cpd 399, N-(5-chloro-6-(2H-1,2,3-triazol-2-yl)pyridin-3-yl)-1-(2-(difluoromethyl)thieno[2,3-c]pyridin-4-yl)-5-(trifluoromethyl)-1H-pyrazole-4-carboxamide], in that order: 0.049 µM, 0.052 µM and 0.316 µM.
Consider `O=C(Nc1cnc(-n2nccn2)c(Cl)c1)c1cnn(-c2cccc3c(C(F)F)nccc23)c1C(F)(F)F` [Cpd 400, N-(5-chloro-6-(2H-1,2,3-triazol-2-yl)pyridin-3-yl)-1-(1-(difluoromethyl)isoquinolin-5-yl)-5-(trifluoromethyl)-1H-pyrazole-4-carboxamide], for which the values for the IC50 in experiment [1], in experiment [2] and in experiment [3] were 0.047 µM, 0.126 µM and 0.209 µM, respectively.
Take `O=C(Nc1cnc(-n2nccn2)c(Cl)c1)c1cnn(-c2cc(C(F)F)nc3ccccc23)c1C(F)(F)F` [Cpd 401, N-(5-chloro-6-(2H-1,2,3-triazol-2-yl)pyridin-3-yl)-1-(2-(difluoromethyl)quinolin-4-yl)-5-(trifluoromethyl)-1H-pyrazole-4-carboxamide]: the figures for the IC50 in experiment [1], in experiment [2] and in experiment [3] were 0.132 µM, 0.331 µM and 0.056 µM, respectively.
In the same order, the values of `CC(F)(F)c1ncc(-n2ncc(C(=O)Nc3cnc(-n4nccn4)c(Cl)c3)c2C(F)(F)F)c2ccccc12` [Cpd 402, N-(5-chloro-6-(2H-1,2,3-triazol-2-yl)pyridin-3-yl)-1-(1-(1,1-difluoroethyl)isoquinolin-4-yl)-5-(trifluoromethyl)-1H-pyrazole-4-carboxamide] are 0.085 µM, 0.2 µM and 0.178 µM.
For `O=C(Nc1cnc(-n2nccn2)c(Cl)c1)c1cnn(-c2cnc(C3CNC3)c3ccccc23)c1C(F)(F)F` [Cpd 403, 1-(1-(azetidin-3-yl)isoquinolin-4-yl)-N-(5-chloro-6-(2H-1,2,3-triazol-2-yl)pyridin-3-yl)-5-(trifluoromethyl)-1H-pyrazole-4-carboxamide], in that order: 0.112 µM, 0.105 µM and 0.871 µM.
In the same order, the values of `COCc1ncc(-n2ncc(C(=O)Nc3cnc(-n4nccn4)c(Cl)c3)c2C(F)(F)F)c2ccccc12` [Cpd 404, N-(5-chloro-6-(2H-1,2,3-triazol-2-yl)pyridin-3-yl)-1-(1-(methoxymethyl)isoquinolin-4-yl)-5-(trifluoromethyl)-1H-pyrazole-4-carboxamide] are 2.63 µM, 0.912 µM and 0.091 µM.
`O=C(Nc1cnc(-n2nccn2)c(Cl)c1)c1cnn(-c2c[n+]([O-])cc3ccccc23)c1C(F)(F)F` [Cpd 406, 4-(4-((5-chloro-6-(2H-1,2,3-triazol-2-yl)pyridin-3-yl)carbamoyl)-5-(trifluoromethyl)-1H-pyrazol-1-yl)isoquinoline 2-oxide]: the IC50 in experiment [1] is 0.2 µM; in experiment [2], 0.224 µM; in experiment [3] it was 0.076 µM.
For `N#Cc1ccc2c(-n3ncc(C(=O)Nc4cnc(-n5nccn5)c(Cl)c4)c3C(F)(F)F)cccc2n1` [Cpd 413, N-(5-chloro-6-(2H-1,2,3-triazol-2-yl)pyridin-3-yl)-1-(2-cyanoquinolin-5-yl)-5-(trifluoromethyl)-1H-pyrazole-4-carboxamide], in that order: 0.38 µM, above 1.51 µM and 0.288 µM.
For `N#Cc1ncc(-n2ncc(C(=O)Nc3cnc(-n4nccn4)c(Cl)c3)c2C(F)(F)F)c2ccccc12` [Cpd 414, N-(5-chloro-6-(2H-1,2,3-triazol-2-yl)pyridin-3-yl)-1-(1-cyanoisoquinolin-4-yl)-5-(trifluoromethyl)-1H-pyrazole-4-carboxamide], in that order: 0.955 µM, above 15.1 µM and 0.019 µM.
Take `N#Cc1ncc(-n2ncc(C(=O)Nc3cnc(-n4nccn4)c(Cl)c3)c2C(F)(F)F)c2ccsc12` [Cpd 415, N-(5-chloro-6-(2H-1,2,3-triazol-2-yl)pyridin-3-yl)-1-(7-cyanothieno[2,3-c]pyridin-4-yl)-5-(trifluoromethyl)-1H-pyrazole-4-carboxamide]: the IC50 in experiment [1] is 0.093 µM; in experiment [2], 0.095 µM; in experiment [3], 0.054 µM.
For `Cc1nc(-n2nccn2)c(Cl)cc1NC(=O)c1cnn(-c2cnc(C#N)c3sccc23)c1C(F)(F)F` [Cpd 416, N-(5-chloro-2-methyl-6-(2H-1,2,3-triazol-2-yl)pyridin-3-yl)-1-(7-cyanothieno[2,3-c]pyridin-4-yl)-5-(trifluoromethyl)-1H-pyrazole-4-carboxamide], in that order: above 15.1 µM, above 15.1 µM and 2.57 µM.
For `Cc1nc(-n2nccn2)c(Cl)cc1NC(=O)c1cnn(-c2cnc(Cl)c3sccc23)c1C(F)(F)F` [Cpd 426, N-(5-chloro-2-methyl-6-(2H-1,2,3-triazol-2-yl)pyridin-3-yl)-1-(7-chlorothieno[2,3-c]pyridin-4-yl)-5-(trifluoromethyl)-1H-pyrazole-4-carboxamide], in that order: 0.06 µM, 0.091 µM and 0.013 µM.
In the same order, the values of `COc1ncc(NC(=O)c2cnn(-c3cccc4c(=O)[nH]ccc34)c2C(F)(F)F)cc1C#N` [Cpd 428, N-(5-cyano-6-methoxypyridin-3-yl)-1-(1-oxo-1,2-dihydroisoquinolin-5-yl)-5-(trifluoromethyl)-1H-pyrazole-4-carboxamide] are 0.24 µM, 0.55 µM and 0.011 µM.
In the case of `O=C(Nc1cnc(-n2nccn2)c(Cl)c1)c1cnn(-c2cnc(N3CC(O)C3)c3sccc23)c1C(F)(F)F` [Cpd 430, N-(5-chloro-6-(2H-1,2,3-triazol-2-yl)pyridin-3-yl)-1-(7-(3-hydroxyazetidin-1-yl)thieno[2,3-c]pyridin-4-yl)-5-(trifluoromethyl)-1H-pyrazole-4-carboxamide], the IC50 in experiment [1] was 0.204 µM; in experiment [2], above 3.02 µM; in experiment [3], 0.013 µM.
